Where two headings read alike, the source gives them in different places.
Assays:
Test in all cases: biochemical
Set-up in all cases: Eurofins KinaseProfiler full panel at Km ATP, residual kinase activity (%) relative to DMSO
[1] = biological target: T1, Rsk3(h) (Homo sapiens, UniProt Q15349)
T1 construct: gene RPS6KA2
Method in brief: (§1)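 Compounds screened at 10 µM in radiometric kinase activity assays at Km ATP, reported as remaining kinase activity (%). A KINOMEscan competition-binding screen at 10 µM measured DNA-tagged kinase retained on immobilized active-site ligand by qPCR.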

[2] = biological target: T2, BrSK1(h) (Homo sapiens, UniProt Q8TDC3)
T2 sequence (Q8TDC3 1-778): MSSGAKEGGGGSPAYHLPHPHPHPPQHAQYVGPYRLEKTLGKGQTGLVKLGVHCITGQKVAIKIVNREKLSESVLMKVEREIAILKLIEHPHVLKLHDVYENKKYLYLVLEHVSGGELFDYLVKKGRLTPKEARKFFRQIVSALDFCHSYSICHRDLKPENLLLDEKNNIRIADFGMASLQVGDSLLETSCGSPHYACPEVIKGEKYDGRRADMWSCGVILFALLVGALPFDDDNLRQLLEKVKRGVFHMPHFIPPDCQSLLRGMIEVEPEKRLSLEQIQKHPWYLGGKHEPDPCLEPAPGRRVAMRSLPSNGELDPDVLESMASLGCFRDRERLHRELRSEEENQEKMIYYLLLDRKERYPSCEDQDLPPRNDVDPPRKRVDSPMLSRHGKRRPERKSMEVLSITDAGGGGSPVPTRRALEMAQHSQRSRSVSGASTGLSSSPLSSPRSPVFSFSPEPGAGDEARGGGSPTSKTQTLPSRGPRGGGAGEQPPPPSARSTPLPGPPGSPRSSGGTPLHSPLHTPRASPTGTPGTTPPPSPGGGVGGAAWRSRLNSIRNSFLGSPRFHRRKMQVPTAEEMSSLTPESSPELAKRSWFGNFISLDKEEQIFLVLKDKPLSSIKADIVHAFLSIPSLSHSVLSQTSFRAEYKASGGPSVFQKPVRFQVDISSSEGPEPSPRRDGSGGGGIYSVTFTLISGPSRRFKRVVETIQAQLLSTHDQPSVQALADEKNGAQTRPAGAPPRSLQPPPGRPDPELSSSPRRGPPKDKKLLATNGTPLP
Method in brief: as §1

[3] = biological target: T3, CHK2(h) (Homo sapiens, UniProt O96017)
T3 construct: gene CHEK2
T3 sequence (O96017 whole entry): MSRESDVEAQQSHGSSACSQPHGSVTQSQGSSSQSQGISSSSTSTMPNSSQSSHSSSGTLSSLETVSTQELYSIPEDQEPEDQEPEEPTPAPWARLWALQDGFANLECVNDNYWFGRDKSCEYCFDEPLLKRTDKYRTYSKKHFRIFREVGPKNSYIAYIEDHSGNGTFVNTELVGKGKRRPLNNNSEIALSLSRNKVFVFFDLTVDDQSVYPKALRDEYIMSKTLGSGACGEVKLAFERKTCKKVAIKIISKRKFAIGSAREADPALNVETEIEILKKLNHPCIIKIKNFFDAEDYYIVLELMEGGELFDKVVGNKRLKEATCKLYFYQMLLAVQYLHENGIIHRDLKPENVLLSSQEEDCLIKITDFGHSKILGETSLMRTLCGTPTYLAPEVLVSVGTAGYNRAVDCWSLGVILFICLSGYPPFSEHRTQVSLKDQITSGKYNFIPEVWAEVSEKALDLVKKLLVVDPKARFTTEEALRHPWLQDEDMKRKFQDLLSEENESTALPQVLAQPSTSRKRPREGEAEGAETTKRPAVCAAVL
Method in brief: as §1

[4] = biological target: T4, NEK1(h) (Homo sapiens, UniProt Q96PY6)
T4 sequence (Q96PY6 1-1258): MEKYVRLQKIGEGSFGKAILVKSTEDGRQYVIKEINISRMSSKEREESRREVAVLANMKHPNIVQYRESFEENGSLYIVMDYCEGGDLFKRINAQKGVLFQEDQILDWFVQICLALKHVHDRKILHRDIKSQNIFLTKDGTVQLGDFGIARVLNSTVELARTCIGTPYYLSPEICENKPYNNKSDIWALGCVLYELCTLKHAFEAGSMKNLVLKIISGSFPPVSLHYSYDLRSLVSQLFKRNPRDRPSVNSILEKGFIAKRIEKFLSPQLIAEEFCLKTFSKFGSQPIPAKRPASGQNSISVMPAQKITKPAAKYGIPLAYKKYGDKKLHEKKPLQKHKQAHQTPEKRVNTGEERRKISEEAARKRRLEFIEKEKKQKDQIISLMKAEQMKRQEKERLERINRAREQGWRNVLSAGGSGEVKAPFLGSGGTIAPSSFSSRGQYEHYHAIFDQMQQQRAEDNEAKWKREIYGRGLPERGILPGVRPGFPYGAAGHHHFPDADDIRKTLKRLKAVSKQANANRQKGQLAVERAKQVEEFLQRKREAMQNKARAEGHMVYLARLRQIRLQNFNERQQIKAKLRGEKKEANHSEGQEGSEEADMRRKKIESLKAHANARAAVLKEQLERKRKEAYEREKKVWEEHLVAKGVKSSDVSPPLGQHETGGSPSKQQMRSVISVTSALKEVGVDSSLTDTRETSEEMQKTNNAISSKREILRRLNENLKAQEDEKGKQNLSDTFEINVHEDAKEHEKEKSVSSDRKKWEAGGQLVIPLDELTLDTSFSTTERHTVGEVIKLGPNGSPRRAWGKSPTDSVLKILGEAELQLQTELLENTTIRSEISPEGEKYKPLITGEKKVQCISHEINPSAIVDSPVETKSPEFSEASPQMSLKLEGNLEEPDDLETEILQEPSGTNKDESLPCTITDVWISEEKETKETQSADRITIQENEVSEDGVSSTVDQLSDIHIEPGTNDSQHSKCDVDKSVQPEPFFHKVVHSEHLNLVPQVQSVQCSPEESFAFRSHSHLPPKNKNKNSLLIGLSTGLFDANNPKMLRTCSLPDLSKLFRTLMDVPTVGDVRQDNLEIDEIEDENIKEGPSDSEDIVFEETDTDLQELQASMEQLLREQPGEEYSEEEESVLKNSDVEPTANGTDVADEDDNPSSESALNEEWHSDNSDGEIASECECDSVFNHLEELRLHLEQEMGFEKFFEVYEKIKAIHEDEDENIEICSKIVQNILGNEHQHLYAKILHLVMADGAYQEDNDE
Method in brief: as §1

[5] = biological target: T5, MRCKα(h) (Homo sapiens, UniProt Q5VT25)
T5 construct: gene CDC42BPA
T5 sequence (Q5VT25 whole entry): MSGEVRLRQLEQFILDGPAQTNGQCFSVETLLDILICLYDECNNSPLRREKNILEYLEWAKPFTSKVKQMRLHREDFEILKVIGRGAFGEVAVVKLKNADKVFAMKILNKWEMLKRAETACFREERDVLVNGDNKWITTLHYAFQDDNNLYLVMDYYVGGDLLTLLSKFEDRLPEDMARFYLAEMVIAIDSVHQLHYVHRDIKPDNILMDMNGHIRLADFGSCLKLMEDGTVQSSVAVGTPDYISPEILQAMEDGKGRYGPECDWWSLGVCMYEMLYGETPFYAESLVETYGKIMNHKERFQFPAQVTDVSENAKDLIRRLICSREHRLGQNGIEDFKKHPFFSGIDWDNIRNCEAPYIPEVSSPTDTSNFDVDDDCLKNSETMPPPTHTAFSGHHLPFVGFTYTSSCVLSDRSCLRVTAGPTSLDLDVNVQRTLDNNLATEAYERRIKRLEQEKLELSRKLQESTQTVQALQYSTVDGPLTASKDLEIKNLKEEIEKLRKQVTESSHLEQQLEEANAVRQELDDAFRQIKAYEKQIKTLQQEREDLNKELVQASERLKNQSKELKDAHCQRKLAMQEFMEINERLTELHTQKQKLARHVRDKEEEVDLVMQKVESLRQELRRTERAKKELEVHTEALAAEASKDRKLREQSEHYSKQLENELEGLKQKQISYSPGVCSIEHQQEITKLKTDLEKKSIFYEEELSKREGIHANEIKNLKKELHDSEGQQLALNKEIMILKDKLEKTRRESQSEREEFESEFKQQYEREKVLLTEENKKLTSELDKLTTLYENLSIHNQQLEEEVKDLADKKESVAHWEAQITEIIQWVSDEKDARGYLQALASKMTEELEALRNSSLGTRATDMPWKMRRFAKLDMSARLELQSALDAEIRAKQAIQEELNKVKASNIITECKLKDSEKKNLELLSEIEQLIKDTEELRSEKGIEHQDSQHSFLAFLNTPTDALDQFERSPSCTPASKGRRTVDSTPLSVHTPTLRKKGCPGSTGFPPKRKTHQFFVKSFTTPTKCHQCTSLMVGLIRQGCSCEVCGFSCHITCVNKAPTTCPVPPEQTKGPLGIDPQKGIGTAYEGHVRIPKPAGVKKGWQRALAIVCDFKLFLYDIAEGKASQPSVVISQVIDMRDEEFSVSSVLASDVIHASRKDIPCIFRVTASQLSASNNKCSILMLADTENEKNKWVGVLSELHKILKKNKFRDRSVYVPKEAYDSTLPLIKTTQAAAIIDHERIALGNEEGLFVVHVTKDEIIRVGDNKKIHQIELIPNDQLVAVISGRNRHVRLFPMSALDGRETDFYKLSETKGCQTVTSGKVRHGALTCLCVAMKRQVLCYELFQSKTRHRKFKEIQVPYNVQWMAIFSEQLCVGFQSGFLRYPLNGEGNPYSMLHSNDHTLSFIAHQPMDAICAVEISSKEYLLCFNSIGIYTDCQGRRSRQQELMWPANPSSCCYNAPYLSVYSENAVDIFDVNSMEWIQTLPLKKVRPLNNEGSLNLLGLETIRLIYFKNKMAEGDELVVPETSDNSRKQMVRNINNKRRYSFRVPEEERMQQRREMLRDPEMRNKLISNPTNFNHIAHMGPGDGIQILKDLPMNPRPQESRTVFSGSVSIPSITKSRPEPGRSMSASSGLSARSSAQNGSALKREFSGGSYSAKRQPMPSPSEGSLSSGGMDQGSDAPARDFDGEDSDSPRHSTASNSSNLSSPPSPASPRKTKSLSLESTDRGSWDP
Method in brief: as §1

[6] = biological target: T6, MLK2(h) (Homo sapiens, UniProt Q02779)
T6 construct: gene MAP3K10
T6 sequence (Q02779 whole entry): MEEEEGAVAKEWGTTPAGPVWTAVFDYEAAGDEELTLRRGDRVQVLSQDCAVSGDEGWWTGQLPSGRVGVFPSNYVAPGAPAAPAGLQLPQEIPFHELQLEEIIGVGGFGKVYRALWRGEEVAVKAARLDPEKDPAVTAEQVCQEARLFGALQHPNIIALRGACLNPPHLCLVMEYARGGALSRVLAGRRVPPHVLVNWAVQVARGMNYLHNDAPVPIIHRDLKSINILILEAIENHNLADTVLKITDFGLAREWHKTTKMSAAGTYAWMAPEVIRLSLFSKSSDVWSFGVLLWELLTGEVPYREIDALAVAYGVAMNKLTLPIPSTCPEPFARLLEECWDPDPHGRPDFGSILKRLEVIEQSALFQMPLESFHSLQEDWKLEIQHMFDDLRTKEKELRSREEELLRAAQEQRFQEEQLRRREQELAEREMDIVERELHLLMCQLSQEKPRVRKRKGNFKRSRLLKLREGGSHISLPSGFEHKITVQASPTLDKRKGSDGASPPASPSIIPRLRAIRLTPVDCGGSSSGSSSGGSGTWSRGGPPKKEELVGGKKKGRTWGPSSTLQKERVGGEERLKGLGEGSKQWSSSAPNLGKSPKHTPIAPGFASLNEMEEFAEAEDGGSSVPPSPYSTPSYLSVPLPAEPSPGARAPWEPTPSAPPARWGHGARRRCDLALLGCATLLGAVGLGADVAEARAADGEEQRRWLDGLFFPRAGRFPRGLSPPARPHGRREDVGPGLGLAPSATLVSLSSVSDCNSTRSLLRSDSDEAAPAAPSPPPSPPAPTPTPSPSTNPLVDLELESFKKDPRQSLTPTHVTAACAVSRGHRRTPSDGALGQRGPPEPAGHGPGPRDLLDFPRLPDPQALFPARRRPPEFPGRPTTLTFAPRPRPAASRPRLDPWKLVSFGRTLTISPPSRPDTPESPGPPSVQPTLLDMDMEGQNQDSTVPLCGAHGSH
Method in brief: as §1

[7] = read-out: Residual activity (%) 5ay
[8] = read-out: Residual activity (%) Spautin-1 5aa
[9] = read-out: Residual activity (%) 5at
[10] = read-out: Residual activity (%) 5as

T1 sequence (Q15349 whole entry): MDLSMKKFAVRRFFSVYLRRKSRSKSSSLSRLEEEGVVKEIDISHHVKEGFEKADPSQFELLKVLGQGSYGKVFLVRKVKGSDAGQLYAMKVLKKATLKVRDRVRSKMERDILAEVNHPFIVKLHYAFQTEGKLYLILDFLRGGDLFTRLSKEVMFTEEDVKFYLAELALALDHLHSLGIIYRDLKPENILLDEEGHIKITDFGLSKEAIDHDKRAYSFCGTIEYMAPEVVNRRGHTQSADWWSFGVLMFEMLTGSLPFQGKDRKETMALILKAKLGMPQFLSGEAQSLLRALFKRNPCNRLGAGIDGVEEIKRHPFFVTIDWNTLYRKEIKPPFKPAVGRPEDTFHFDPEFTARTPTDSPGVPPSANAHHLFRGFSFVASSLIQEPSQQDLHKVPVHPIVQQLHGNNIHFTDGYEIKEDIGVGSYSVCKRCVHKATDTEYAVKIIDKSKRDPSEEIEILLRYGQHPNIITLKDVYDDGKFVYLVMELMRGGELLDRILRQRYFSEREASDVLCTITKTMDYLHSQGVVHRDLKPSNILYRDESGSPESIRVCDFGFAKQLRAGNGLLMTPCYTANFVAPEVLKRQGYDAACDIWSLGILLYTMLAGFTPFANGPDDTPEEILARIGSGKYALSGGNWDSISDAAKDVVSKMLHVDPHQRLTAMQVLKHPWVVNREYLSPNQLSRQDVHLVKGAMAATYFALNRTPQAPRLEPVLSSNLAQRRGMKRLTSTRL

In the case of `COc1ccc2ncnc(Nc3cccc(F)c3)c2c1` [5ay, N-(3-Fluorophenyl)-6-Methoxy-4-Quinazolinamine], the remaining activity at 10 µM [1, 7] is reported as 87%, the remaining activity at 10 µM [2, 7] is reported as 30% and the remaining activity at 10 µM [3, 7] is reported as 67%. It also gave a remaining activity at 10 µM [4, 7] of 60%, a remaining activity at 10 µM [5, 7] of 87% and a remaining activity at 10 µM [6, 7] of 96%.
With `Fc1ccc(CNc2ncnc3ccc(F)cc23)cc1` [5aa, 6-Fluoro-N-(4-fluorobenzyl)-4-Quinazolinamine] the remaining activity at 10 µM [1, 8] was 126%, the remaining activity at 10 µM [2, 8] was 85% and the remaining activity at 10 µM [3, 8] was 67%. The remaining activity at 10 µM [4, 8] was 81%, the remaining activity at 10 µM [5, 8] was 91% and the remaining activity at 10 µM [6, 8] was 95%.
With `Fc1ccc2ncnc(NCCc3ccc(Cl)cc3)c2c1` [5at, N-[2-(4-Chlorophenyl)Ethyl]-6-Fluoro-4-Quinazolinamine] the remaining activity at 10 µM [1, 9] was 111%, the remaining activity at 10 µM [2, 9] was 112% and the remaining activity at 10 µM [3, 9] was 75%. The remaining activity at 10 µM [4, 9] was 70%, the remaining activity at 10 µM [5, 9] was 98% and the remaining activity at 10 µM [6, 9] was 93%.
Molecule `Fc1ccc(CCNc2ncnc3ccc(F)cc23)cc1` [5as, 6-Fluoro-N-[2-(4-Fluorophenyl)Ethyl]-4-Quinazolinamine] has a remaining activity at 10 µM [1, 10] of 108%, a remaining activity at 10 µM [2, 10] of 89% and a remaining activity at 10 µM [3, 10] of 73%. It also gave a remaining activity at 10 µM [4, 10] of 97%, a remaining activity at 10 µM [5, 10] of 93% and a remaining activity at 10 µM [6, 10] of 97%.
